Drawing on patent US8163779B2, “Glucokinase activators” (Takeda San Diego, Inc., priority 2006, dated 2012), this text covers EC50 for 28 compounds.

The target of this test is T1, glucokinase (GK) (Homo sapiens, UniProt P35557).
T1 construct: I.D. No. 1 corresponds to residues 12-465 of glucokinase; made in house; host or cells: E. coli DH10b-T1r
T1 sequence (P35557 with tags, fused parts or gaps isoform P35557-2): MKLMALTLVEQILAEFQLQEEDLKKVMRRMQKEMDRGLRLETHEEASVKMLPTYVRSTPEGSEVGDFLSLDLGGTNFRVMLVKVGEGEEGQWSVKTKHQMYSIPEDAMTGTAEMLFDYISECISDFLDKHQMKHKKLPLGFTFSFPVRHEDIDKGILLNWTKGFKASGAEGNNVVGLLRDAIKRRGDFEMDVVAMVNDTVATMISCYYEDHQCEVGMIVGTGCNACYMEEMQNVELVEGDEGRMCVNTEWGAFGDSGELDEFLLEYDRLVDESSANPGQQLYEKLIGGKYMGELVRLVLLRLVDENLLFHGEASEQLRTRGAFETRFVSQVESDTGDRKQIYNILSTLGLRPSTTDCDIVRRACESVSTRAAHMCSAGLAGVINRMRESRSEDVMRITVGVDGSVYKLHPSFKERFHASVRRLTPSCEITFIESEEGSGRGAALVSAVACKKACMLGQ
The test is described as follows: enzymatic glucokinase activity assay (ATP consumption, KinaseGlo luminescence). The format is biochemical. To be noted: recombinant GK residues 12-465; 5 μM ATP, 5 mM Glucose; Kact = concentration that displays 50% of the maximal increase in GK activity; read-out: pKact. The method in brief: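 Activation was scored as ATP consumption, quantified by KinaseGlo luciferase luminescence after a 60 min room-temperature reaction. Reactions contained E. coli-expressed, purified GK, 5 μM ATP, 5 mM glucose, 10 mM MgCl2, 0.01% Brij35 and 2% DMSO at pH 7.2; pKact was fitted non-linearly.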

Structures can show the parent of a compound that is named as a salt. Some results are limits rather than exact numbers.

For the compound `Cc1cc(S(=O)(=O)C2CCCC2)cc(=O)n1[C@H](CC1CCOCC1)C(=O)Nc1ccc(C(N)=O)cn1` [Example 181, (R)-6-(2-(4-(cyclopentylsulfonyl)-6-methyl-2-oxopyridin-1(2H)-yl)-3-(tetrahydro-2H-pyran-4-yl)propanamido)nicotinamide], the EC50 is over 15.8 µM.

On to `O=C(Nc1ncc(Cl)s1)C(CC1CCOCC1)n1cc(Cl)c(S(=O)(=O)C2CCCC2)cc1=O` (stereo not shown) [Example 185, 2-(5-chloro-4-(cyclopentylsulfonyl)-2-oxopyridin-1(2H)-yl)-N-(5-chlorothiazol-2-yl)-3-(tetrahydro-2H-pyran-4-yl)propanamide], for which the EC50 fell in the range of 1.58 to 15.8 µM.

In the case of `Cc1occc1S(=O)(=O)c1cc(C)n(C(CC2CCCCC2)C(=O)Nc2ncc(Cl)s2)c(=O)c1` (stereo not shown) [Example 54, N-(5-chlorothiazol-2-yl)-3-cyclohexyl-2-(6-methyl-4-(2-methylfuran-3-ylsulfonyl)-2-oxopyridin-1(2H)-yl)propanamide], the EC50 was under 1.58 µM.

Regarding `O=C(Nc1nccs1)C(CC1CCOCC1)n1cc(S(=O)(=O)N2CCCC2)ccc1=O` (stereo not shown) [Example 139, 2-(2-oxo-5-(pyrrolidin-1-ylsulfonyl)pyridin-1(2H)-yl)-3-(tetrahydro-2H-pyran-4-yl)-N-(thiazol-2-yl)propanamide], the EC50 lay in the range of 1.58 to 15.8 µM.

Regarding `Cc1cc(S(=O)(=O)C2CCCC2)cc(=O)n1C(CC1CCCCC1)C(=O)Nc1nccs1` (stereo not shown) [Example 5, 3-cyclohexyl-2-(4-(cyclopentylsulfonyl)-6-methyl-2-oxopyridin-1(2H)-yl)-N-(thiazol-2-yl)propanamide trifluoroacetic acid salt], the EC50 was under 1.58 µM.

Regarding `CCCCC(C(=O)Nc1nccs1)n1c(C)cc(S(=O)(=O)C2CCCC2)cc1=O` (stereo not shown) [Example 18, 2-(4-(cyclopentylsulfonyl)-6-methyl-2-oxopyridin-1(2H)-yl)-N-(thiazol-2-yl)hexanamide], the EC50 lay in the range of 1.58 to 15.8 µM.

For the compound `Cc1cc(-c2ccc(S(C)(=O)=O)cc2)cc(=O)n1[C@@H](CC1CCCCC1)C(=O)Nc1nccs1` [Example 101, (S)-3-cyclohexyl-2-(6-methyl-4-(4-(methylsulfonyl)phenyl)-2-oxopyridin-1(2H)-yl)-N-(thiazol-2-yl)propanamide], the EC50 is over 15.8 µM.

Regarding `Cc1cc(S(=O)(=O)C2CCCC2)cc(=O)n1C(CC1CCCCC1)C(=O)Nc1ccc(C(N)=O)cn1` (stereo not shown) [Example 6, 6-(3-cyclohexyl-2-(4-(cyclopentylsulfonyl)-6-methyl-2-oxopyridin-1(2H)-yl)propanamido)nicotinamide trifluoroacetic acid salt], the EC50 was under 1.58 µM.

With `Cc1cnc(NC(=O)C(CC2CCOCC2)n2ccc(OCc3ccccc3)cc2=O)s1` (stereo not shown) [Example 55, 2-(4-(benzyloxy)-2-oxopyridin-1(2H)-yl)-N-(5-methylthiazol-2-yl)-3-(tetrahydro-2H-pyran-4-yl)propanamide], the EC50 was in the range of 1.58 to 15.8 µM.

On to `Cc1cc(S(=O)(=O)c2cccc(Cl)c2)cc(=O)n1[C@H](CC1CCOCC1)C(=O)Nc1ncc(F)s1` [Example 169, (R)-2-(4-(3-chlorophenylsulfonyl)-6-methyl-2-oxopyridin-1(2H)-yl)-N-(5-fluorothiazol-2-yl)-3-(tetrahydro-2H-pyran-4-yl)propanamide], for which the EC50 is over 15.8 µM.

On to `COC(=O)c1cnc(NC(=O)[C@H](CC2CCOCC2)n2ccc(S(=O)(=O)C3CCCC3)cc2=O)s1` [Example 45, (5)-methyl 2-(2-(4-(cyclopentylsulfonyl)-2-oxopyridin-1(2H)-yl)-3-(tetrahydro-2H-pyran-4-yl)propanamido)thiazole-5-carboxylate], for which the EC50 is under 1.58 µM.

On to `COc1ccc2nc(NC(=O)[C@H](CC3CCCCC3)n3c(C)cc(S(=O)(=O)C4CC4)cc3=O)sc2n1` [Example 123, (S)-3-cyclohexyl-2-(4-(cyclopropylsulfonyl)-6-methyl-2-oxopyridin-1(2H)-yl)-N-(5-methoxythiazolo[5,4-b]pyridin-2-yl)propanamide], for which the EC50 is under 1.58 µM.

With `Cc1cc(S(=O)(=O)C2CCCC2)cc(=O)n1C(CC1CCOCC1)C(=O)Nc1cnccn1` (stereo not shown) [Example 177, 2-(4-(cyclopentylsulfonyl)-6-methyl-2-oxopyridin-1(2H)-yl)-N-(pyrazin-2-yl)-3-(tetrahydro-2H-pyran-4-yl)propanamide], the EC50 is over 15.8 µM.

As for `CCS(=O)(=O)c1ccc(-c2cc(C)n([C@@H](CC3CCCCC3)C(=O)Nc3nccs3)c(=O)c2)cc1` [Example 102, (S)-3-cyclohexyl-2-(4-(4-(ethylsulfonyl)phenyl)-6-methyl-2-oxopyridin-1(2H)-yl)-N-(thiazol-2-yl)propanamide], the EC50 is over 15.8 µM.

Regarding `Cc1cc(S(=O)(=O)C2CCOCC2)cc(=O)n1C(CC1CCCC1)C(=O)Nc1ncc(F)s1` (stereo not shown) [Example 175, 3-cyclopentyl-N-(5-fluorothiazol-2-yl)-2-(6-methyl-2-oxo-4-(tetrahydro-2H-pyran-4-ylsulfonyl)pyridin-1(2H)-yl)propanamide], the EC50 fell in the range of 1.58 to 15.8 µM.

Take `O=C(Nc1ncc(Cl)s1)C(CC1CCCCC1)n1cc(Cl)c2sccc2c1=O` (stereo not shown) [Example 124, 2-(7-chloro-4-oxothieno[3,2-c]pyridin-5(4H)-yl)-N-(5-chlorothiazol-2-yl)-3-cyclohexylpropanamide]: the EC50 was over 15.8 µM.

With `Cc1cc(S(=O)(=O)C2CCS(=O)(=O)CC2)cc(=O)n1[C@H](CC1CCCCC1)C(=O)Nc1ncc(Cl)s1` [Example 188, (R)-N-(5-chlorothiazol-2-yl)-2-(4-(1,1-dioxotetrahydrothiopyran-4-ylsulfonyl)-6-methyl-2-oxopyridin-1(2H)-yl)-3-cyclohexylpropanamide], the EC50 was over 15.8 µM.

As for `Cc1c(S(=O)(=O)C2CCCC2)cc(=O)n([C@H](CC2CCOCC2)C(=O)Nc2ncc(F)s2)c1C` [Example 153, (R)-2-(4-(cyclopentylsulfonyl)-5,6-dimethyl-2-oxopyridin-1(2H)-yl)-N-(5-fluorothiazol-2-yl)-3-(tetrahydro-2H-pyran-4-yl)propanamide], the EC50 was under 1.58 µM.

Consider `Cc1cc(-c2ccccc2)cc(=O)n1[C@@H](CC1CCCCC1)C(=O)Nc1nccs1` [Example 90, (S)-3-cyclohexyl-2-(6-methyl-2-oxo-4-phenylpyridin-1(2H)-yl)-N-(thiazol-2-yl)propanamide], for which the EC50 was over 15.8 µM.

Consider `COc1ccc(-c2cc(C)n([C@@H](CC3CCCCC3)C(=O)Nc3nccs3)c(=O)c2)cc1` [Example 96, (S)-3-cyclohexyl-2-(4-(4-methoxyphenyl)-6-methyl-2-oxopyridin-1(2H)-yl)-N-(thiazol-2-yl)propanamide], for which the EC50 is over 15.8 µM.

Take `O=C(Nc1nccs1)[C@H](CC1CCCCC1)n1ccc(S(=O)(=O)C2CCCC2)cc1=O` [Example 13, (S)-3-cyclohexyl-2-(4-(cyclopentylsulfonyl)-2-oxopyridin-1(2H)-yl)-N-(thiazol-2-yl)propanamide]: the EC50 was under 1.58 µM.

Turning to `Cc1cc(S(=O)(=O)c2cccc(F)c2)cc(=O)n1C(CC1CCOCC1)C(=O)Nc1ncc(F)s1` (stereo not shown) [Example 159, 2-(4-(3-fluorophenylsulfonyl)-6-methyl-2-oxopyridin-1(2H)-yl)-N-(5-fluorothiazol-2-yl)-3-(tetrahydro-2H-pyran-4-yl)propanamide], the EC50 fell in the range of 1.58 to 15.8 µM.

Take `Cc1cc(S(=O)(=O)Cc2cccs2)cc(=O)n1[C@@H](CC1CCCCC1)C(=O)Nc1ncc(Cl)s1` [Example 85, (S)-N-(5-chlorothiazol-2-yl)-3-cyclohexyl-2-(6-methyl-2-oxo-4-(thiophen-2-ylmethylsulfonyl)pyridin-1(2H)-yl)propanamide]: the EC50 is under 1.58 µM.

As for `Cc1cc(S(=O)(=O)C2CCCC2)cc(=O)n1[C@H](CC1CCOCC1)C(=O)Nc1ccc(Cl)cn1` [Example 167, (R)-N-(5-chloropyridin-2-yl)-2-(4-(cyclopentylsulfonyl)-6-methyl-2-oxopyridin-1(2H)-yl)-3-(tetrahydro-2H-pyran-4-yl)propanamide], the EC50 is over 15.8 µM.

In the case of `Cc1cc(S(=O)(=O)Cc2cccs2)cc(=O)n1C(CC1CCOCC1)C(=O)Nc1ncc(Cl)s1` (stereo not shown) [Example 134, N-(5-chlorothiazol-2-yl)-2-(6-methyl-2-oxo-4-(thiophen-2-ylmethylsulfonyl)pyridin-1(2H)-yl)-3-(tetrahydro-2H-pyran-4-yl)propanamide], the EC50 is under 1.58 µM.

In the case of `O=C(Nc1ncc(F)s1)[C@H](CC1CCOCC1)n1ccc(S(=O)(=O)C2CCCC2)cc1=O` [Example 34, (S)-2-(4-(cyclopentylsulfonyl)-2-oxopyridin-1(2H)-yl)-N-(5-fluorothiazol-2-yl)-3-(tetrahydro-2H-pyran-4-yl)propanamide], the EC50 was under 1.58 µM.

As for `O=C(Nc1ccc(Cl)cn1)[C@@H](CC1CCOCC1)n1ccc(S(=O)(=O)C2CCCC2)cc1=O` [Example 41, (R)-N-(5-chloropyridin-2-yl)-2-(4-(cyclopentylsulfonyl)-2-oxopyridin-1(2H)-yl)-3-(tetrahydro-2H-pyran-4-yl)propanamide], the EC50 is over 15.8 µM.

In the case of `Cc1cc(S(=O)(=O)C2CCCC2)cc(=O)n1[C@@H](CC1CCOCC1)C(=O)Nc1ncc(F)s1` [Example 40, (S)-2-(4-(cyclopentylsulfonyl)-6-methyl-2-oxopyridin-1(2H)-yl)-N-(5-fluorothiazol-2-yl)-3-(tetrahydro-2H-pyran-4-yl)propanamide], the EC50 is under 1.58 µM.
